{"source": "patent US20210330603A1", "about": "(priority 2020, published 2021)", "key": {"EHEC strain 86-24": {"tested_on": "EHEC strain 86-24", "assay": "qPCR of espA in EHEC grown in LG-DMEM with CBD", "assay_type": "cell-based, Escherichia coli O157:H7"}, "EHEC 86-24 [1]": {"tested_on": "EHEC 86-24", "assay": "EspA immunoblot of EHEC grown with CBD", "assay_type": "cell-based, Escherichia coli O157:H7", "conditions": "50 μM CBD"}, "EHEC 86-24 [2]": {"tested_on": "EHEC 86-24", "assay": "Growth rate and growth yield of EHEC with CBD", "assay_type": "cell-based, Escherichia coli O157:H7"}, "Citrobacter rodentium": {"tested_on": "Citrobacter rodentium", "assay": "Cannabidiol treatment of C. rodentium infected mice (fecal colony counts)", "assay_type": "in vivo, mouse", "conditions": "single dose one-day post-infection"}, "Staphylococcus aureus": {"tested_on": "Staphylococcus aureus", "assay": "Growth curves of Staphylococcus aureus in the presence of AA and AG (FIG. 22)", "assay_type": "cell-based", "text": "(§1) FIG. 22. Growth curves for Staphylococcus aureus (left side graphs) and EHEC (right side graphs) in the presence of AA (top graphs) and AG (bottom graphs).\n(§2) Some lipids are antimicrobial with respect to certain bacteria."}, "QseC": {"biological_target": "T1, QseC (Escherichia coli O157:H7, UniProt Q8X524)", "T1 construct": "Myc (C); His (C); made in house; host or cells: E. coli BL21(DE3) (printed 'B121 DE3'), arabinose induction, Ni-NTA purification", "T1 sequence (Q8X524 whole entry)": "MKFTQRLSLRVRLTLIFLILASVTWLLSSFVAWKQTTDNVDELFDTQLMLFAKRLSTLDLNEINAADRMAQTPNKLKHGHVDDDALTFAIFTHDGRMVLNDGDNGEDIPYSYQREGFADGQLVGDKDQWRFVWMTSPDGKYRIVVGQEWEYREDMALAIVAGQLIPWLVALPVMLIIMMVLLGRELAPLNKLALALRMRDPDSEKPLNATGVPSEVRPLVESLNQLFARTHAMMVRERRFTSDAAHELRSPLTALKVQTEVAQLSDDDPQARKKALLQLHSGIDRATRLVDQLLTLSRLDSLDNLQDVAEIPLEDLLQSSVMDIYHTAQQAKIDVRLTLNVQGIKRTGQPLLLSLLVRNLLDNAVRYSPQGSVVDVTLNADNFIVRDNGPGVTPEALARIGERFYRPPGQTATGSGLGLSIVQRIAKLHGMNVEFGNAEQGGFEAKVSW", "assay": "Autophosphorylation of QseC in liposomes", "assay_type": "biochemical"}, "EHEC [3]": {"tested_on": "EHEC", "assay": "Western blots of secreted translocon components EspA and EspB, EHEC (LEE-encoded T3SS activity)", "assay_type": "cell-based, Escherichia coli O157:H7"}, "EHEC [4]": {"tested_on": "EHEC", "assay": "Growth curves of EHEC in the presence of AA and AG (FIG. 22)", "assay_type": "cell-based, Escherichia coli", "conditions": "concentrations of 80 and 160 μM", "text": "as §1, §2"}, "EHEC [5]": {"tested_on": "EHEC", "assay_type": "cell-based, Escherichia coli O157:H7"}, "EHEC [6]": {"tested_on": "EHEC", "assay_type": "cell-based, Escherichia coli O157:H7", "remark": "listed apart in the source"}, "C. rodentium [7]": {"tested_on": "C. rodentium", "assay_type": "cell-based, Citrobacter rodentium"}, "C. rodentium [8]": {"tested_on": "C. rodentium", "assay": "Western blots of secreted translocon components EspA and EspB, C. rodentium", "assay_type": "cell-based, Citrobacter rodentium", "conditions": "physiological concentrations of 2-AG, late-log phase"}, "EHEC [9]": {"tested_on": "EHEC", "assay": "Western blots of lysate-associated EspA, EspB and Tir in EHEC", "assay_type": "cell-based, Escherichia coli O157:H7", "conditions": "late-log phase"}, "EHEC [10]": {"tested_on": "EHEC", "assay": "Growth kinetics of EHEC under LEE-inducing conditions (FIG. 11)", "assay_type": "cell-based, Escherichia coli O157:H7", "conditions": "10 μM 2-AG, microaerobic, DMEM-low glucose"}, "C. rodentium [11]": {"tested_on": "C. rodentium", "assay": "Growth kinetics of C. rodentium under LEE-inducing conditions (FIG. 11)", "assay_type": "cell-based, Citrobacter rodentium", "conditions": "10 μM 2-AG, microaerobic, DMEM-low glucose"}, "EHEC [12]": {"tested_on": "EHEC", "assay": "Fluorescent actin staining (FAS) assay, EHEC pedestal formation on HeLa cells", "assay_type": "cell-based, Escherichia coli O157:H7", "conditions": "EHEC treated with 10 μM 2-AG prior to infection of HeLa cells"}, "S. Typhimurium [13]": {"tested_on": "S. Typhimurium", "assay": "Targeted qPCR of SPI-1 genes in S. Typhimurium", "assay_type": "cell-based, Salmonella enterica serovar Typhimurium", "conditions": "10 μM 2-AG, SPI-1-inducing conditions, late-log phase"}, "S. Typhimurium [14]": {"tested_on": "S. Typhimurium", "assay": "SipA secretion by S. Typhimurium under SPI-1-inducing conditions", "assay_type": "cell-based, Salmonella enterica serovar Typhimurium", "conditions": "10 μM 2-AG"}, "S. Typhimurium [15]": {"tested_on": "S. Typhimurium", "assay": "Epithelial invasion assay, S. Typhimurium on HeLa cells", "assay_type": "cell-based, Salmonella enterica serovar Typhimurium", "conditions": "ST treated with 10 μM 2-AG prior to infection of HeLa cells"}, "S. Typhimurium [16]": {"tested_on": "S. Typhimurium", "assay": "Growth curves of S. Typhimurium under SPI-1-inducing conditions", "assay_type": "cell-based, Salmonella enterica serovar Typhimurium", "conditions": "10 μM 2-AG"}, "S. Typhimurium [17]": {"tested_on": "S. Typhimurium", "assay": "Transcript levels of SPI-2 genes in S. Typhimurium", "assay_type": "cell-based, Salmonella enterica serovar Typhimurium", "conditions": "10 μM 2-AG, SPI-2-inducing conditions, 3 hours"}, "S. Typhimurium [18]": {"tested_on": "S. Typhimurium", "assay": "Macrophage infection, intramacrophagic survival of S. Typhimurium in J774.1 murine macrophages", "assay_type": "cell-based, Salmonella enterica serovar Typhimurium"}, "CpxA": {"biological_target": "T2, CpxA (Escherichia coli O157:H7, UniProt P0AE84)", "T2 construct": "made in house; host or cells: E. coli BL21(DE3) (printed 'B121 DE3'), IPTG induction, Ni-NTA purification", "T2 sequence (P0AE84 1-457)": "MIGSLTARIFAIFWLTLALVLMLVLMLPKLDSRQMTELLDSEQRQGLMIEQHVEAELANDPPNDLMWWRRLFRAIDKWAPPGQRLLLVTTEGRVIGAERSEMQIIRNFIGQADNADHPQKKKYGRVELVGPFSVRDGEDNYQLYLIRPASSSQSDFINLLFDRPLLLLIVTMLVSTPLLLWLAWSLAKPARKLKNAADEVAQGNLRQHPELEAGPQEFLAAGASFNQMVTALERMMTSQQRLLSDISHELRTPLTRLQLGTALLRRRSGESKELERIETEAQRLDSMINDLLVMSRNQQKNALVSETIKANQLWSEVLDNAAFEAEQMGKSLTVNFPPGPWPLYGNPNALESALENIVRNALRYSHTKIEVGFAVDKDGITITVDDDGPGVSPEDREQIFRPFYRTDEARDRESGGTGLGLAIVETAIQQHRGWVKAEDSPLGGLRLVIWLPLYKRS", "assay": "Autophosphorylation of CpxA in liposomes", "assay_type": "biochemical", "conditions": "10 μM 2-AG, 120 seconds or 10 minutes"}, "FusK": {"tested_on": "FusK", "assay": "qRT-PCR of LEE-encoded tir in EHEC ΔfusK", "assay_type": "cell-based, Escherichia coli O157:H7", "conditions": "20 μM 2-AG, aerobic"}, "C. rodentium [19]": {"tested_on": "C. rodentium", "assay": "Pharmacological inhibition of MgI in C. rodentium infected mice (FIG. 23)", "assay_type": "in vivo, mouse"}, "[20]": {"conditions": "physiological concentrations of 2-AG, late-log phase"}}}
{"smiles": "C=C(C)[C@@H]1CCC(C)=C[C@H]1c1c(O)cc(CCCCC)cc1O", "note": "[CBD, cannabidiol]", "values": [{"measurement": "decrease in expression of espA compared to the vehicle", "setting": "EHEC strain 86-24; wt EHEC 86-24, 50 μM CBD", "value": 20.6, "unit": "fold"}, {"measurement": "reduction in expression of espA between the control and CBD", "setting": "EHEC strain 86-24; ΔqseC deletion strain, 50 μM CBD", "value": 17.5, "unit": "fold"}, {"measurement": "expression of EspA protein (immunoblot)", "setting": "EHEC 86-24 [1]", "value": "reduced expression of EspA"}, {"measurement": "growth rate and growth yield", "setting": "EHEC 86-24 [2]", "value": "neither the growth rate nor the growth yield for the wt and ΔqseC deletion strains were significantly altered"}, {"measurement": "ability of Citrobacter rodentium to colonize the intestines of mice", "setting": "Citrobacter rodentium", "value": "inhibited the ability"}]}
{"smiles": "CCCCC/C=C\\C/C=C\\C/C=C\\C/C=C\\CCCC(=O)O", "note": "[Arachidonic acid]", "values": [{"measurement": "growth of S. aureus", "setting": "Staphylococcus aureus", "value": "inhibits the growth"}]}
{"smiles": "Cc1c(C(=O)NN2CCCCC2)nn(-c2ccc(Cl)cc2Cl)c1-c1ccc(I)cc1", "note": "[AM251, reference compound]", "values": [{"measurement": "effect on 2-AG-mediated inhibition of QseC activity", "setting": "QseC; 6 μM 2-AG and AM251, 30 minutes, liposome system", "value": "prevented 2-AG-mediated inhibition of QseC activity"}]}
{"smiles": "CCCCC/C=C\\C/C=C\\C/C=C\\C/C=C\\CCCC(=O)NCCO", "note": "[anandamide, reference compound]", "values": [{"measurement": "LEE activity (EspA and EspB secretion)", "setting": "EHEC [3]; anandamide 100 or 200 nM, late-log phase", "value": "does not alter LEE activity"}]}
{"smiles": "CCCCC/C=C\\C/C=C\\C/C=C\\C/C=C\\CCCC(=O)OC(CO)CO", "note": "[2-AG, 2-arachidonoyl-glycerol]", "values": [{"measurement": "growth of EHEC", "setting": "EHEC [4]", "value": "does not inhibit growth"}, {"measurement": "differentially expressed KEGG pathways (RNAseq)", "setting": "EHEC [5]", "value": "significantly altered the expression four KEGG pathways"}, {"measurement": "expression of LEE-encoded genes (RNAseq)", "setting": "EHEC [5]", "value": "significant downregulation of numerous LEE-encoded genes"}, {"measurement": "non-LEE encoded genes differentially expressed (RNAseq)", "setting": "EHEC [5]", "value": "few non-LEE encoded genes were differentially expressed"}, {"measurement": "LEE transcription, targeted qPCR of LEE-encoded genes spanning its five operons", "setting": "EHEC [6]", "value": "inhibitory effects of 2-AG on LEE transcription were confirmed"}, {"measurement": "transcription of Shiga toxin (stx2a)", "setting": "EHEC [6]", "value": "no transcriptional effect"}, {"measurement": "expression of LEE-encoded genes in C. rodentium", "setting": "C. rodentium [7]", "value": "decreased expression of LEE-encoded genes"}, {"measurement": "LEE activity in isogenic fadL mutant", "setting": "EHEC [3]; EHEC ΔfadL, 10 μM 2-AG", "value": "no longer inhibited"}, {"measurement": "EspA secretion, EHEC", "setting": "EHEC [3]; [20]", "value": "significantly reduced"}, {"measurement": "EspB secretion, EHEC", "setting": "EHEC [3]; [20]", "value": "significantly reduced"}, {"measurement": "LEE functional activity in the qseC mutant in EHEC", "setting": "EHEC [3]; qseC isogenic mutant, 10 μM 2-AG", "value": "not affected"}, {"measurement": "EspA secretion, C. rodentium", "setting": "C. rodentium [8]", "value": "significantly reduced"}, {"measurement": "EspB secretion, C. rodentium", "setting": "C. rodentium [8]", "value": "significantly reduced"}, {"measurement": "protein expression of EspA in EHEC lysates", "setting": "EHEC [9]", "value": "significantly decreased"}, {"measurement": "protein expression of EspB in EHEC lysates", "setting": "EHEC [9]", "value": "significantly decreased"}, {"measurement": "protein expression of Tir in EHEC lysates", "setting": "EHEC [9]", "value": "significantly decreased"}, {"measurement": "growth of EHEC", "setting": "EHEC [10]", "value": "did not correspond with altered growth"}, {"measurement": "growth of C. rodentium", "setting": "C. rodentium [11]", "value": "did not correspond with altered growth"}, {"measurement": "pedestal formation on epithelial cells (A/E lesion formation)", "setting": "EHEC [12]", "value": "decreased pedestal formation"}, {"measurement": "expression of hilD", "setting": "S. Typhimurium [13]", "value": "inhibits expression"}, {"measurement": "expression of sipA", "setting": "S. Typhimurium [13]", "value": "inhibits expression"}, {"measurement": "expression of sopB", "setting": "S. Typhimurium [13]", "value": "inhibits expression"}, {"measurement": "secretion of SipA", "setting": "S. Typhimurium [14]", "value": "decreased secretion of SipA"}, {"measurement": "epithelial invasiveness", "setting": "S. Typhimurium [15]", "value": "attenuated epithelial invasiveness"}, {"measurement": "S. Typhimurium growth kinetics", "setting": "S. Typhimurium [16]", "value": "did not alter"}, {"measurement": "expression of ssaV", "setting": "S. Typhimurium [17]", "value": "decreased expression"}, {"measurement": "expression of sseF", "setting": "S. Typhimurium [17]", "value": "decreased expression"}, {"measurement": "survival within macrophages", "setting": "S. Typhimurium [18]", "value": "decreased survival within macrophages"}, {"measurement": "Epi-mediated activation of QseC", "setting": "QseC; 6 μM 2-AG, 50 μM epinephrine, 30 minutes", "value": "inhibited Epi-mediated activation of QseC"}, {"measurement": "QseC activation (autophosphorylation)", "setting": "QseC; QseC reconstituted into liposomes", "value": "significantly diminished"}, {"measurement": "activity of CpxA (autophosphorylation)", "setting": "CpxA", "value": "did not inhibit"}, {"measurement": "activity of FusK", "setting": "FusK", "value": "did not inhibit"}]}
{"smiles": "CCCCC/C=C\\C/C=C\\C/C=C\\C/C=C\\CCCC(=O)OC[C@@H](O)CO", "note": "[1-AG, reference compound]", "values": [{"measurement": "LEE-encoded T3SS activity (EspA and EspB secretion)", "setting": "EHEC [3]; 1-AG in contrast to 2-AG, late-log phase", "value": "does not attenuate LEE-encoded T3SS activity"}]}
{"smiles": "O=C(Oc1ccc([N+](=O)[O-])cc1)N1CCC(C(O)(c2ccc3c(c2)OCO3)c2ccc3c(c2)OCO3)CC1", "note": "[JZL184]", "values": [{"measurement": "colonization of cecum tissues by C. rodentium", "setting": "C. rodentium [19]", "value": "decreases colonization of cecum tissues"}]}
